According to PMC8803906, “Metabolite Identification and Pharmacokinetic Behavior of Diaveridine in the Plasma of Pigs and Chickens Based on Radioactive Tracing Coupled With LC/MS-IT-TOF Assay” (Frontiers in Veterinary Science, 2022):
“Also recorded” adds a separate entry of the source. Like-named read-outs stand apart in the source and are kept apart here.

How the values were obtained:
[1] = design: method as in PMID 4650364; details: urine at 8 h after a single oral dose of 10 mg/kg BW TMP; cited from earlier work
in vivo [2] = details: for Radioactive compound detected/identified in plasma / Concentration in plasma: single oral ^3H-DVD 10 mg/kg BW; for t1/2 (elimination half-life): non-compartmental; for Concentration in plasma: pigs
Source text: (§1) Four healthy castrated male pigs (Landrace/Doric Cross, 60-d-old, 30 ± 2 kg) were supplied by the China Breeding Pig Testing Center of Huazhong Agricultural University (Wuhan, China). Six healthy Cobb 500 broiler chickens (three female and three male, 40-d-old, 2.5 ± 0.1 kg) were purchased from Wuhan Chia Tai chicken farm (Wuhan, China). All animals were maintained under standard environmental conditions by using normal husbandry practices and were acclimatized for 1 week. The animals were fed a commercial standard diet and water ad libitum, but were fasted overnight before dose administration and up to 4 h after dose administration. All animal care and experimental protocols were conducted in accordance with the Guide for the Care and Use of Laboratory Animals of Hubei Provincial Laboratory Animal Public Service Center (permit number SYXK 2013-0044) and approved by the Ethics Committee of Huazhong Agricultural University.
(§2) Pigs (n = 4) and chickens (n = 6) were weighed individually and given a single dose of 10 mg/kg BW ^3H-DVD with a specific activity of 0.23 Ci/g. The ^3H-DVD solution was prepared by accurately mixing ^3H-DVD and non-labeled DVD at a mass ratio of 1:96 and diluting it with 0.5% methylcellulose to make a homogeneous suspension with a concentration of 25 mg/ml. The suspension was administered by gastric gavage using a soft stomach tube connected to an injection syringe. About 1.5 ml of blood was collected into heparinized tubes from the anterior venae cavae of pig and the wing veins of chicken at different time points. For pigs, blood was collected before administration and 0.17, 0.33, 0.5, 0.67, 1, 1.5, 2, 4, 6, 8, 12, 24, 48, 72, 168, and 336 h after oral treatment. For chickens, blood was collected before administration and 0.25, 0.5, 1, 1.5, 2, 4, 6, 8, 12, 24, 36, 48, 72, 168, and 336 h after oral dosing. Plasma samples were collected after centrifugation at 4°C and 2,254 × g for 10 min and were stored at −20°C until analysis.
(§3) Plasma samples were completely thawed at room temperature. Each sample was divided into two parts, one was used for the assay of total radioactivity, and the other was subjected to a MCX Solid Phase Extraction (SPE) procedure for the qualitative and quantitative analysis of DVD-related metabolites.
(§4) The total radioactivity assay was conducted in accordance with a previous study with a few modifications ([20]). Briefly, 50 μl of plasma was mixed with 50 μl of 0.1 mol/L EDTA-Na and 50 μl of 30% H2O2 at 50°C in a shaking water bath for 2 h for bleaching. The obtained transparent liquid was mixed with 10 ml of Ultima Gold™ scintillation fluid and was analyzed directly using a Packard Tri-Carb 2900 TR liquid scintillation counter (PerkinElmer Life and Analytical Sciences, Waltham, MA, USA). The scintillation counter data were automatically corrected for counting efficiency using an instrument-stored quench curve that was drawn with a series of sealed quenched ^14C standards. All the samples were analyzed in duplicate and the actual radioactivity of each sample was calculated by subtracting the […].
(§5) A 500 μl plasma sample was adjusted to pH 2.8–3.2 with 1 ml of 1 M hydrochloric acid (HCl), and a […] aliquot of the mixture was placed in a MCX cartridge preconditioned with 3 ml of methanol followed by 3 ml of 0.1 mol/L HCl water. The cartridge was washed with 3 ml of 0.1 mol/L HCl water and then eluted with 5 ml NH4OH/methanol (8:92, v:v). The effluent was concentrated to dryness under a stream of nitrogen at 40°C. The residue was reconstituted in 250 μl of methanol-water (1:9, v:v) before injection onto the LC-v.ARC/MS-IT-TOF system for metabolite identification and quantitation.
(§6) Measurement of total radioactivity in each sample was conducted using a Packard Tri-Carb 2900 TR liquid scintillation counter. The detection time was 10 min for two cycles.

in vivo [3] = details: for Radioactive compound detected/identified in plasma / Concentration in plasma: single oral ^3H-DVD 10 mg/kg BW; for Concentration in plasma: chickens
Source text: as §1, §2, §3, §4, §5, §6

[4] = test system: tester strain TA100 and TA98; design: method as in PMID 1922158, PMID 26397222; details: cited from earlier work
[5] = pigs, cited from earlier work
[6] = chickens, cited from earlier work
[7] = design: method as in PMID 26212255; details: cited from earlier work
[8] = design: method as in PMID 22161732; details: pig liver microsomes incubated with DVD; cited from earlier work
[9] = male, Landrace/Doric Cross, pig, in vivo, po, 10 mg/kg
[10] = pig plasma, oral ^3H-DVD 10 mg/kg BW
[11] = both, Cobb 500 broiler, in vivo, po, 10 mg/kg
[12] = chicken plasma, oral ^3H-DVD 10 mg/kg BW
[13] = HPLC-UV method, previous studies

Compound: COc1cc(Cc2cnc(N)nc2N)cc(O)c1OC [3′-demethylated TMP]
- Content in urine [1]: > 30%

Compound: COc1cc(Cc2cnc(N)nc2N)cc(OC)c1O [4′-demethylated TMP]
- Content in urine [1]: 1%

Compound: COc1ccc(Cc2cnc(N)nc2N)cc1OC [D0, 5-[(3′,4′-dimethoxyphenyl)methyl]-2,4-pyrimidinediamine, reference compound]
- Tmax (time to Cmax from time zero) (in vivo [2]; male, Landrace/Doric Cross, pig, in vivo): 2.0 ± 0.0 h
- concentration at 168 h (in vivo [2]; male, Landrace/Doric Cross, pig, in vivo, 10 mg/kg BW): 60 ± 20 ng/mL
- AUC0−∞ (in vivo [2]; male, Landrace/Doric Cross, pig, in vivo, po): 33900 ng·h/mL
- AUC(0-inf) (in vivo [2]; [9]): 33900 ± 5810 ng·h/mL
- ClB (total body clearance) (in vivo [2]; [9]): 5 ± 0.83 mL/min/kg
- Cmax (in vivo [2]; [9]): 490 ± 20 ng/mL
- MRT inf (in vivo [2]; [9]): 93 ± 12.6 h
- MRT last (in vivo [2]; [9]): 57.3 ± 1.72 h
- half-life (in vivo [2]; [9]): 66.4 ± 10.1 h
- Tmax (time to Cmax from time zero) (in vivo [2]; [10]): 2 h
- Radioactive compound detected/identified in plasma (in vivo [2]; pig plasma): identified; also recorded: detected
- Time at which DVD was still detected in plasma (in vivo [2]; pig plasma, this study): 168 h
- Tmax (time to Cmax from time zero) (in vivo [3]; both, Cobb 500 broiler, chicken, in vivo): 2.0 ± 0.0 h
- concentration at 168 h (in vivo [3]; both, Cobb 500 broiler, chicken, in vivo, 10 mg/kg BW): 90 ± 30 ng/mL
- AUC0−∞ (in vivo [3]; both, Cobb 500 broiler, chicken, in vivo, po): 55300 ng·h/mL
- AUC(0-inf) (in vivo [3]; [11]): 55300 ± 11500 ng·h/mL
- ClB (total body clearance) (in vivo [3]; [11]): 3.17 ± 0.67 mL/min/kg
- Cmax (in vivo [3]; [11]): 1550 ± 390 ng/mL
- MRT inf (in vivo [3]; [11]): 66.2 ± 10.7 h
- MRT last (in vivo [3]; [11]): 43.7 ± 2.42 h
- half-life (in vivo [3]; [11]): 48.3 ± 12.8 h
- Tmax (time to Cmax from time zero) (in vivo [3]; [12]): 2 h
- Radioactive compound detected/identified in plasma (in vivo [3]; chicken plasma): identified; also recorded: detected
- Time at which DVD was still detected in plasma (in vivo [3]; chicken plasma, this study): 168 h
- Mutagenicity ([4]; strain TA100 after metabolic activation with hamster S9 mix): mutagenic
- Mutagenicity ([4]; tester strain TA100 and TA98, presence and absence of rat S9 mix): not mutagenic
- Cmax [5, 13]: 430 ng/mL
- Tmax [5, 13]: 1.04 h
- Time at which DVD was still detected in plasma ([5]; HPLC-UV, ref Li et al. 15): 6 h
- Cmax [6, 13]: 1450 ng/mL
- Tmax [6, 13]: 3.25 h
- Time at which DVD was still detected in plasma ([6]; HPLC-UV, ref Li et al. 15): 24 h
- Withdrawal period ([7]; kidney): 6.74 days
- Withdrawal period ([7]; liver): 4.94 days
- Withdrawal period ([7]; muscle): 4.77 days
- Withdrawal period ([7]; skin with fat): 4.58 days

Compound: COc1ccc(Cc2cnc(N)nc2N)cc1O [D1, 3′-desmethyl-DVD]
- AUC0−∞ (in vivo [2]; [10]): 3720 ± 620 ng·h/mL
- ClB (total body clearance) (in vivo [2]; [10]): 46 ± 7.67 mL/min/kg
- Cmax (maximum drug concentration) (in vivo [2]; [10]): 240 ± 50 ng/mL
- MRT0−∞ (in vivo [2]; [10]): 22.93 ± 1.28 h
- MRTLast (in vivo [2]; [10]): 15.23 ± 0.25 h
- Tmax (time to Cmax from time zero) (in vivo [2]; [10]): 2 h
- Vd (apparent volume of distribution) (in vivo [2]; [10]): 70.38 ± 6.67 L/kg
- t1/2 (elimination half-life) (in vivo [2]; [10]): 17.86 ± 1.30 h
- Radioactive compound detected/identified in plasma (in vivo [2]; pig plasma): identified; also recorded: detected
- Concentration in plasma (in vivo [2]; 0.5 h, ND = below the LOQ): 120 ± 30 ng/mL
- Concentration in plasma (in vivo [2]; 0.67 h): 150 ± 20 ng/mL
- Concentration in plasma (in vivo [2]; 1 h): 160 ± 40 ng/mL
- Concentration in plasma (in vivo [2]; 1.5 h): 190 ± 30 ng/mL
- Concentration in plasma (in vivo [2]; 2 h): 240 ± 60 ng/mL
- Concentration in plasma (in vivo [2]; 4 h): 160 ± 20 ng/mL
- Concentration in plasma (in vivo [2]; 6 h): 100 ± 20 ng/mL
- Concentration in plasma (in vivo [2]; 8 h): 80 ± 10 ng/mL
- Concentration in plasma (in vivo [2]; 12 h): 80 ± 10 ng/mL
- Concentration in plasma (in vivo [2]; 24 h): 60 ± 10 ng/mL
- Concentration in plasma (in vivo [2]; 48 h): 20 ± 10 ng/mL
- Metabolite detected in vitro [8]: detected

Compound: COc1ccc(Cc2cnc(N)nc2N)cc1OC1OC(C(=O)O)C(O)C(O)C1O (centres unmarked) [D2, monoglucuronide of 3′-desmethyl-DVD]
- AUC0−∞ (in vivo [2]; [10]): 17580 ± 2320 ng·h/mL
- ClB (total body clearance) (in vivo [2]; [10]): 9.67 ± 1.3 mL/min/kg
- Cmax (maximum drug concentration) (in vivo [2]; [10]): 1380 ± 40 ng/mL
- MRT0−∞ (in vivo [2]; [10]): 23.01 ± 1.48 h
- MRTLast (in vivo [2]; [10]): 14.91 ± 0.41 h
- Tmax (time to Cmax from time zero) (in vivo [2]; [10]): 2 h
- Vd (apparent volume of distribution) (in vivo [2]; [10]): 15.39 ± 3.28 L/kg
- t1/2 (elimination half-life) (in vivo [2]; [10]): 18.26 ± 1.70 h
- Radioactive compound detected/identified in plasma (in vivo [2]; pig plasma): identified; also recorded: detected
- Concentration in plasma (in vivo [2]; 0.17 h, ND = below the LOQ): 100 ± 30 ng/mL
- Concentration in plasma (in vivo [2]; 0.33 h, ND = below the LOQ): 260 ± 110 ng/mL
- Concentration in plasma (in vivo [2]; 0.5 h, ND = below the LOQ): 520 ± 150 ng/mL
- Concentration in plasma (in vivo [2]; 0.67 h): 610 ± 190 ng/mL
- Concentration in plasma (in vivo [2]; 1 h): 690 ± 200 ng/mL
- Concentration in plasma (in vivo [2]; 1.5 h): 1230 ± 40 ng/mL
- Concentration in plasma (in vivo [2]; 2 h): 1380 ± 40 ng/mL
- Concentration in plasma (in vivo [2]; 4 h): 660 ± 50 ng/mL
- Concentration in plasma (in vivo [2]; 6 h): 500 ± 80 ng/mL
- Concentration in plasma (in vivo [2]; 8 h): 410 ± 70 ng/mL
- Concentration in plasma (in vivo [2]; 12 h): 350 ± 60 ng/mL
- Concentration in plasma (in vivo [2]; 24 h): 270 ± 80 ng/mL
- Concentration in plasma (in vivo [2]; 48 h): 90 ± 10 ng/mL
- AUC0−∞ (in vivo [3]; [12]): 1730 ± 440 ng·h/mL
- ClB (total body clearance) (in vivo [3]; [12]): 102 ± 26.3 mL/min/kg
- Cmax (maximum drug concentration) (in vivo [3]; [12]): 270 ± 80 ng/mL
- MRT0−∞ (in vivo [3]; [12]): 6.20 ± 0.18 h
- MRTLast (in vivo [3]; [12]): 4.66 ± 0.17 h
- Tmax (time to Cmax from time zero) (in vivo [3]; [12]): 2 h
- Vd (apparent volume of distribution) (in vivo [3]; [12]): 32.45 ± 12.36 L/kg
- t1/2 (elimination half-life) (in vivo [3]; chicken plasma, oral ^3H-DVD 10 mg/kg BW, non-compartmental): 3.56 ± 0.44 h
- Radioactive compound detected/identified in plasma (in vivo [3]; chicken plasma): identified; also recorded: detected
- Concentration in plasma (in vivo [3]; 1 h): 120 ± 30 ng/mL
- Concentration in plasma (in vivo [3]; 1.5 h): 230 ± 30 ng/mL
- Concentration in plasma (in vivo [3]; 2 h): 270 ± 90 ng/mL
- Concentration in plasma (in vivo [3]; 4 h): 180 ± 60 ng/mL
- Concentration in plasma (in vivo [3]; 6 h): 140 ± 50 ng/mL
- Concentration in plasma (in vivo [3]; 8 h): 90 ± 30 ng/mL
- Concentration in plasma (in vivo [3]; 12 h): 40 ± 10 ng/mL
- Metabolite detected in vitro [8]: no D2 was found
